From ChEMBL document CHEMBL1201862, “PubChem BioAssay data set” (2004)
Where a name gives a salt, the structure may show the parent alone. The source made the active and inactive calls.

Legend:
[1] = biological target: FAD-linked sulfhydryl oxidase ALR (Homo sapiens, UniProt P55789); assay: ALR-catalysed DTT oxidation blockers – biochemical, H2O2 detection, luminescence, cherry-pick, dose response (AID 493248)
[2] = biological target: T1, Streptokinase A (Streptococcus pyogenes serotype M1, UniProt P10520); assay: viability-normalized secreted streptokinase activity reduction – plasminogen activation absorbance, OD405, dose response (AID 1914); assay type: functional, Streptococcus pyogenes M1 GAS;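 further: secreted streptokinase activity via plasminogen activation per viability signal from cell pellet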
T1 sequence (P10520 whole entry): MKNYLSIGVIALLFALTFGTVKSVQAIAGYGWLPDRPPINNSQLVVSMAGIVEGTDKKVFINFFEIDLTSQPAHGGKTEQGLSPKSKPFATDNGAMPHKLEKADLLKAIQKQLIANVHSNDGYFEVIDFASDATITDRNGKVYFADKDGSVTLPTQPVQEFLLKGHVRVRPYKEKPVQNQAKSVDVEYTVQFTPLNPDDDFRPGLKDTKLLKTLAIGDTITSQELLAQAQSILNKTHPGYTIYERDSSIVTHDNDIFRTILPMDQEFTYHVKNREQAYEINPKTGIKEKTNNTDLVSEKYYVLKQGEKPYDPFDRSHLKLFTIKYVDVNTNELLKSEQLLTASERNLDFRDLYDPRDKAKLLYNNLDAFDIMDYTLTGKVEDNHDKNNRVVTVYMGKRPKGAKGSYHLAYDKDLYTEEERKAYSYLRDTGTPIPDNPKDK

[3] = test system: Streptococcus; assay: GAS UMAA2166 growth inhibition – luminescence, BacTiterGlo, counter-screen for streptokinase expression inhibitor project, dose response (AID 1915); assay type: functional, organism-based;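 further: potency for reduction of bacterial viability or growth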
[4] = viability of uninfected HEp-2 cells – cell-based, HTS, cytotoxicity control for RSV inhibitor project, dose response (AID 2410); assay type: functional; settings: human respiratory syncytial virus
[5] = test system: Streptococcus sp. 'group A'; assay: Streptococcus pyogenes SK(-)GAS viability under kanamycin – luminescence, BacTiterGlo, confirmation, counter-screen for streptokinase expression inhibitor project, dose response (AID 1900); assay type: functional, organism-based
[6] = biological target: T2, Corticotropin-releasing factor receptor 2/Corticotropin-releasing factor-binding protein (Homo sapiens, UniProt P24387+Q13324); assay: activators of CRF receptor 2 with binding protein – uHTS hits, confirmation (AID 602473); assay type: functional; settings: read-out: EC50_Mean
T2 sequence (Q13324 whole entry): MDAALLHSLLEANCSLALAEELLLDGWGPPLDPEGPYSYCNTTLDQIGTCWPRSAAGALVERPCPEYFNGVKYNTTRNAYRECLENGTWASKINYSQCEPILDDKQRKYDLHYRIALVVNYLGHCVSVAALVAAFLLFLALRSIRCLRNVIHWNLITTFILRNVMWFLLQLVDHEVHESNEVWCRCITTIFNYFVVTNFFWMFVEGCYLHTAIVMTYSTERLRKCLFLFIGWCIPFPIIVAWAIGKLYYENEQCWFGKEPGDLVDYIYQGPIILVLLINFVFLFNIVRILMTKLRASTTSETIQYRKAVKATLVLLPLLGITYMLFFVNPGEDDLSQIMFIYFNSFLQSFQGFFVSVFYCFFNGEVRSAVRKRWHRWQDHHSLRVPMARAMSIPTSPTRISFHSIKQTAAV
T2 sequence (P24387 whole entry): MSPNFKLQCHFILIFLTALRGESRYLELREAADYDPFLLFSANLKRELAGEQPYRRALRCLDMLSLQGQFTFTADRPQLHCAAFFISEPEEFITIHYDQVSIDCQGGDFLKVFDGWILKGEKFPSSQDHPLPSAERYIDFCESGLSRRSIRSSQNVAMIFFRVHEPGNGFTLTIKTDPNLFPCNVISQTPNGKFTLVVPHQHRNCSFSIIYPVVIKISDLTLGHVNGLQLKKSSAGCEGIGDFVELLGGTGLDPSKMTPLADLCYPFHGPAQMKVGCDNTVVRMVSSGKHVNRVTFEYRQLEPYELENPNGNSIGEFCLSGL

[7] = biological target: T2, Corticotropin-releasing factor receptor 2/Corticotropin-releasing factor-binding protein; assay: Dose Response confirmation of uHTS hits for small molecule antagonists of the CRF-binding protein and CRF-R2 receptor complex.; assay type: functional; settings: read-out: IC50_Mean
[8] = Luminescence Cell-Based Dose Retest to Confirm Inhibitors of Cancer Stem Cells. [Related pubchem assays (depositor defined):AID2717, AID2721]; assay type: functional; settings: Homo sapiens
[9] = biological target: Genome polyprotein (dengue virus type 2, UniProt P29990); assay: flavivirus cap methylation enzyme inhibition – biochemical, confirmation dose response, primary screen (AID 588689); assay type: functional
[10] = biological target: T3, Polyadenylate-binding protein 1 (Homo sapiens, UniProt P11940); assay: MLLE domain peptide-binding blockers, IC50 – biochemical, fluorescence polarization, FITC-PAM2 peptide, dose response (AID 602259); assay type: functional; settings: read-out: IC50_Mean
[11] = biological target: T3, Polyadenylate-binding protein 1; assay: MLLE binding blockers, Cy5 peptide tracer – biochemical, fluorescence polarization, Cy5-PAM2 peptide, secondary, miRNA deadenylation inhibitor project, dose response (AID 602260); assay type: functional; settings: read-out: IC50_Mean
[12] = biological target: T4, Protein RecA (Mycobacterium tuberculosis, UniProt P9WHJ3); assay: Fluorescence Cell-Free Homogeneous Dose Retest to Identify Inhibitors of RecA-Intein Splicing Activity. [Related pubchem assays (depositor defined):AID2097, AID2223, AID489010, AID492950]; assay type: functional
T4 sequence (P9WHJ3 whole entry): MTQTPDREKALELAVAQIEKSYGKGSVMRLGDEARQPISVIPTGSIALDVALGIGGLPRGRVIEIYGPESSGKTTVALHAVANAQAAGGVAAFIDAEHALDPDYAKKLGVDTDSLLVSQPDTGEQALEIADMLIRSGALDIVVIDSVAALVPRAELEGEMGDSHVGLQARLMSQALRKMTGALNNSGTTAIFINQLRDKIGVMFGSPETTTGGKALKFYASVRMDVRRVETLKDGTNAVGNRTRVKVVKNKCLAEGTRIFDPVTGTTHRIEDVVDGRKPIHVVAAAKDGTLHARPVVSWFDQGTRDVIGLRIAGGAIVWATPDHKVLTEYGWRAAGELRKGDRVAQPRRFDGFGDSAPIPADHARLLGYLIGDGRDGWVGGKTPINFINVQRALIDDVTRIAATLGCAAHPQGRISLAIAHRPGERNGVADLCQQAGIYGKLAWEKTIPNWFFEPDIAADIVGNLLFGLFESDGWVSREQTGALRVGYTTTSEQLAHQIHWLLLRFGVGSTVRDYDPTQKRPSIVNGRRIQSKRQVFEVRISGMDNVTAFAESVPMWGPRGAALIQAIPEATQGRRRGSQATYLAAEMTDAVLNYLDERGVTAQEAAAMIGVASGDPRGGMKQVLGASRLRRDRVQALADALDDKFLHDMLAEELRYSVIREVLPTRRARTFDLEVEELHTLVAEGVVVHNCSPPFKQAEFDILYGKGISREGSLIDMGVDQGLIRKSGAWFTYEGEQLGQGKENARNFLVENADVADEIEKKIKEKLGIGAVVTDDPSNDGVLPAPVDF

[13] = biological target: T5, Replicative DNA helicase DnaB (Mycobacterium tuberculosis, UniProt P9WMR3); assay: DnaB intein splicing inhibitors, dose response, biochemical, cell-free fluorescence (AID 449749); assay type: functional
T5 sequence (P9WMR3 whole entry): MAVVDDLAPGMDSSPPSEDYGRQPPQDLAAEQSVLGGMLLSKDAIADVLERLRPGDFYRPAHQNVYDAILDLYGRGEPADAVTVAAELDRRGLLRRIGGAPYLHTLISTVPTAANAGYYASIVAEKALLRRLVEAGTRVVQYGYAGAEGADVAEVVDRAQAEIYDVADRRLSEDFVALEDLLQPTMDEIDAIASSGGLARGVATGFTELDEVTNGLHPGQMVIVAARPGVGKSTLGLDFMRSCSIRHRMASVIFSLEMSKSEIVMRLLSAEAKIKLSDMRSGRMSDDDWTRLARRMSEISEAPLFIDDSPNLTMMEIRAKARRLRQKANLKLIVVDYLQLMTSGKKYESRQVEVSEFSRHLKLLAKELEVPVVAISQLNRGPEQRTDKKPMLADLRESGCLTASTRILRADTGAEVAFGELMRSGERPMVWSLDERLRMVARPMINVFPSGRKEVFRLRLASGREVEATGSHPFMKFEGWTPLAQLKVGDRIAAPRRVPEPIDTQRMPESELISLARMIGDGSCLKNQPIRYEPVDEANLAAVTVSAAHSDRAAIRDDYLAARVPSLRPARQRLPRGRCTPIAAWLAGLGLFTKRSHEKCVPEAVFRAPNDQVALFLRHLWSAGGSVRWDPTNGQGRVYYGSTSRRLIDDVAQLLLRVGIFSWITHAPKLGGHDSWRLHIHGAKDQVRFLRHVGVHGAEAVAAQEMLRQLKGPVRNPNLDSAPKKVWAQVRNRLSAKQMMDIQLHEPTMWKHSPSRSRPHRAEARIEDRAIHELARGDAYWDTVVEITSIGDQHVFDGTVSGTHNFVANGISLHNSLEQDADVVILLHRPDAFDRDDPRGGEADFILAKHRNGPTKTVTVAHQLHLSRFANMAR

[14] = fluconazole-exposed Candida albicans growth modulators – fluorescence, retest, confirmation (AID 2467); assay type: functional, cell-based
[15] = NIH-3T3 fibroblast cytotoxicity, dose response, cytotoxicity control, cell-based, fluorescence, Alamar Blue, secondary assay (AID 2327); assay type: functional;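 further: NIH-3T3 mouse fibroblasts cultured with fluconazole at 8 µg/mL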

Sequence of FAD-linked sulfhydryl oxidase ALR (P55789 whole entry): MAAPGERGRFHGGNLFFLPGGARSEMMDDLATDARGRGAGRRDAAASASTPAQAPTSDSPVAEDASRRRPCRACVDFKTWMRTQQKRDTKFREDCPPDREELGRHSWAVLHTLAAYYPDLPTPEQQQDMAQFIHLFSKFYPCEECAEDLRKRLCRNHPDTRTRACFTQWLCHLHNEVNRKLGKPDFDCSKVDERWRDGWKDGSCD
T3 sequence (P11940 whole entry, the tested form may be a part): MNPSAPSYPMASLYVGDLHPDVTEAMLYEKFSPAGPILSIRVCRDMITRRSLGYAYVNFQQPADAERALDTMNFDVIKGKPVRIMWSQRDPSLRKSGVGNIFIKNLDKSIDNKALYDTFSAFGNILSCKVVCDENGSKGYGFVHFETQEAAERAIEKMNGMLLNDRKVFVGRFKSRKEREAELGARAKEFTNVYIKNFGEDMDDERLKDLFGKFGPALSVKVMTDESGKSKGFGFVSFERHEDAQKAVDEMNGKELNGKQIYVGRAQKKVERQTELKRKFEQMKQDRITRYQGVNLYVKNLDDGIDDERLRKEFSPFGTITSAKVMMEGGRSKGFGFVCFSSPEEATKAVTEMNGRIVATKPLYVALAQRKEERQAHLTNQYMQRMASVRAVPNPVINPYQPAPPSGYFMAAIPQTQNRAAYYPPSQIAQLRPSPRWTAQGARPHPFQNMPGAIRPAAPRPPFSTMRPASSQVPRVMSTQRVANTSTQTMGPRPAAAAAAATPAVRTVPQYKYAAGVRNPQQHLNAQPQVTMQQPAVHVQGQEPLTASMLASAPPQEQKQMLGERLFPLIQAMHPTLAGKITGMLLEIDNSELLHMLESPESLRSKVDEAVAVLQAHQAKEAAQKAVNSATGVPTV
Sequence of Genome polyprotein (P29990 2492-3391 limits assumed): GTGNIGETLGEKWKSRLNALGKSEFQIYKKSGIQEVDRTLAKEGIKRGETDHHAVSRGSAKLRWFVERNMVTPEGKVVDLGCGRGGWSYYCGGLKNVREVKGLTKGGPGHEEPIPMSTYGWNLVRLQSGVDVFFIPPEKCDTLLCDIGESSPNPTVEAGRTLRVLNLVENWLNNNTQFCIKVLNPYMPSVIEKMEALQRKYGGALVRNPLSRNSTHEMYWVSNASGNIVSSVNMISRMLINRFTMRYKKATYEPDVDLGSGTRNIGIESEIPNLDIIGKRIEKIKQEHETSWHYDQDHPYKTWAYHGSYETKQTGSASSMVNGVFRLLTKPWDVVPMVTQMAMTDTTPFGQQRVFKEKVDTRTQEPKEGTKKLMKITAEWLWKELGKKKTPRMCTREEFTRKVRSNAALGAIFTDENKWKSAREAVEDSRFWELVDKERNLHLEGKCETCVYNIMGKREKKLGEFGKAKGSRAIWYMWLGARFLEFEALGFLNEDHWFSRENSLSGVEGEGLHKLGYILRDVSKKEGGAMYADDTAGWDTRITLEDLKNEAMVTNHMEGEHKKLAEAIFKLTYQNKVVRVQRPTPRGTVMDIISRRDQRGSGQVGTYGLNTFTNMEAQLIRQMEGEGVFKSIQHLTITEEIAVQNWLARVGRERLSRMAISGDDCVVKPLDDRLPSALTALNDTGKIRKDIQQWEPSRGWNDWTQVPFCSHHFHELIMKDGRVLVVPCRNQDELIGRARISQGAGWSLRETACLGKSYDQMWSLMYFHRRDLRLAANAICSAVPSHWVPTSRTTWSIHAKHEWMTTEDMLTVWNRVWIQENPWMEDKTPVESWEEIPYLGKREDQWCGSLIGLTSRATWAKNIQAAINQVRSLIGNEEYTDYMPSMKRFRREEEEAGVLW

## Nc1cc(=O)[nH]n1C1CCN(c2ccccc2)CC1
[1]
  AC50: 2.61 µM (active)

## O=c1c2c(O)cc(-c3ccccc3)nc2[nH]n1-c1ccccc1
[1]
  AC50: 3.54 µM (active)

## CCc1nc(SCC(=O)Nc2ccccc2OC)c2c(C)c(C)sc2n1
[2]
  EC50: > 150 µM (not active)
[3]
  EC50: > 150 µM (not active)
[4]
  CC50: 26 µM (active)
[5]
  EC50: 8.64 µM (active)

## COc1c2c(c(OC)c3ccccc13)[C@@]1(OC2)O[C@H](CCO)C[C@H](O)[C@H]1O
[6]
  EC50: > 53 µM (inactive)
[7]
  IC50: > 47.1 µM (inactive)

## Cc1occc1C(=O)N/N=C/C(Br)=C\c1ccccc1
[4]
  CC50: 22.4 µM (active)

## COc1cc(/C=C/c2noc(-c3ccccc3O)n2)ccc1OC(C)=O
[8]
  AC50: 3.44 µM (active)

## Cn1nc([N+](=O)[O-])c(C(C#N)c2nc3ccccc3n2C)c(Cl)c1=O (stereo unspecified)
[9]
  IC50: 16.7 µM (active)
[10]
  IC50: 30.8 µM (inactive)
[11]
  IC50: > 66 µM (inactive)

## CN(CCOc1ccc(CC2SC(=O)NC2=O)cc1)c1ccccn1 (stereo unspecified) [ROSIGLITAZONE MALEATE]
[6]
  EC50: > 53 µM (inactive)
[7]
  IC50: > 47.1 µM (inactive)

## Cc1cccc(/C=N/n2c(S)nnc2-c2ccccn2)c1
[1]
  AC50: 67.5 µM (active)

## CCCCNC(=O)c1cn(CC)c2ccc(S(=O)(=O)N3CCCCCC3)cc2c1=O
[6]
  EC50: > 53 µM (inactive)
[7]
  IC50: > 47.1 µM (inactive)

## C/C(=N\NC(=O)C1CC1)c1ccc(OC(F)F)cc1OC(F)F
[4]
  CC50: 30.8 µM (active)

## CCOc1ccc(S(=O)(=O)Nc2cccnc2)cc1
[6]
  EC50: > 53 µM (inactive)
[7]
  IC50: > 47.1 µM (inactive)

## O=C(Cn1c(=O)sc2ccccc21)Nc1nc2c(s1)CCCC2
[4]
  CC50: > 50 µM (active)

## CC1=NN(c2ccccc2)C(=O)/C1=C/c1ccc(Cl)cc1
[12]
  EC50: 1.35 µM (active)
[9]
  IC50: 38.6 µM (active)
[13]
  AC50: 2.15 µM (active)

## NC(=O)c1ccc2nc(-c3ccccc3)c(-c3ccccc3)nc2c1
[6]
  EC50: > 53 µM (inactive)
[7]
  IC50: > 47.1 µM (inactive)

## CCN(CC)c1ccc(CN(C(=O)c2cc(OC)c(OC)c(OC)c2)C2CCS(=O)(=O)C2)cc1 (stereo unspecified)
[1]
  AC50: 9.07 µM (active)

## C=CCn1c(S)nnc1Cc1cccc2ccccc12
[1]
  AC50: 23.3 µM (active)

## CC(C)c1ccc(/C=C2\C(=N)N3N=C(CC(=O)N4CCCCC4)SC3=NC2=O)cc1
[1]
  AC50: 5.61 µM (active)

## Cn1ccc(/C=N/NC2=NC(=O)CS2)n1
[4]
  CC50: 24.5 µM (active)

## N#C/C(=C(/O)COc1ccc(Cl)cc1)c1nc2ccccc2s1
[14]
  EC50: 0.191 µM (active)
[6]
  EC50: > 53 µM (inactive)
[7]
  IC50: < 0.368 µM (active)
[15]
  EC50: 93.5 µM (active)

## CN(C)c1c([N+](=O)[O-])cc2[nH]c(O)nc2c1[N+](=O)[O-]
[4]
  CC50: 24.7 µM (active)

## Cc1ccc(S(=O)(=O)Nc2cc(C(=O)Nc3cc(C)cc(C)c3)ccc2Cl)cc1
[6]
  EC50: > 53 µM (inactive)
[7]
  IC50: > 47.1 µM (inactive)

## CCOC(=O)c1c(C)[nH]c(C(=O)COC(=O)c2ccccc2NC(=O)c2ccco2)c1C
[4]
  CC50: > 50 µM (active)

## CCOC(=O)Cn1c2c(c(-c3ccccc3OC)cc1=O)CCCC2
[6]
  EC50: > 53 µM (inactive)
[7]
  IC50: > 47.1 µM (inactive)

## O=S(=O)(NCC(c1ccco1)N1CCc2ccccc21)c1ccccc1 (stereo unspecified)
[1]
  AC50: 2.49 µM (active)

## NC(=O)c1ccc(NC(=O)COC(=O)c2c3c(nc4ccccc24)/C(=C\c2cccs2)CCC3)cc1
[8]
  AC50: 10.4 µM (active)

## COc1ccc2sc(-c3ccc(SC)cc3)c(C#CCO)c2c1
[8]
  AC50: 9.22 µM (active)

## COc1ccnc(N2CCN(c3ccccc3)CC2)c1C#N
[14]
  EC50: > 38 µM (not active)
[1]
  AC50: 1.27 µM (active)
[15]
  EC50: > 160 µM (inactive)

## COc1ccc(CC(=O)ONC(=N)c2cccc([N+](=O)[O-])c2)cc1
[6]
  EC50: > 53 µM (inactive)
[7]
  IC50: > 47.1 µM (inactive)

## CCOC(=O)c1c(-c2cccc(Cl)c2)n[nH]c1N1C(=O)Nc2ccccc2N1O
[6]
  EC50: > 53 µM (inactive)
[7]
  IC50: > 47.1 µM (inactive)
